Tests used:
[1] = target: T1, RNase A (Bos taurus, UniProt P61823); details: at 10 eq; of eleven carboxylates; cited from earlier work
T1 sequence (P61823 27-150): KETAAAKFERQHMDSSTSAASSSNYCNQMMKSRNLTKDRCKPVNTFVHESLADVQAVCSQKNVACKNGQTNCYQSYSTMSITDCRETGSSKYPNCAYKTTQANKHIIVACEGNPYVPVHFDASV

[2] = acetonitrile and acetonitrile/aqueous buffer (3:1 v/v); cited from earlier work
[3] = system: CHO K1 cells; test: Internalization of esterified GFP by CHO K1 cells (flow cytometry, confocal microscopy); assay type: cell-based, Chinese hamster; details: 15 μM GFP, 37° C., 2 h, versus unlabeled GFP
Description: FIG. 8 is a graph showing quantification of internalization of labeled versus unlabeled GFP by CHO K1 cells using flow cytometry measuring median fluorescence intensity. Single cells were sorted based on forward scatter-side scatter measurements, and live cells were sorted using 7AAD (7-amino-actinomycin D) stain.
FIGS. 9A-C illustrate microscopy images of uptake of esterified GFP (green) by CHO K1 cells. FIG. 9A: Not esterified. FIG. 9B: Esterified with α-diazo-4-methylphenyl-N-propargylacetamide. FIG. 9C: Esterified with α-diazo-4-methylphenyl-N,N-dimethylacetamide. Cell nuclei are stained with Hoechst 33342 (blue).
Chinese hamster ovary (CHO) K1 cells were incubated at 37° C. for 2 h in F-12K medium (which was supplemented with penicillin/streptomycin) containing either unlabeled or labeled GFP (15 μM). […] Individual cells were imaged by confocal microscopy for two of the diazo compounds.

[4] = measured in dimethylsulfoxide; cited from earlier work

| Structure (SMILES) | formation of the desired ester with carboxylic acids [2] | uptake of GFP esterified with the diazo compound into CHO K1 cells [3] | also measured |
| --- | --- | --- | --- |
| [N-]=[N+]=C1c2ccccc2-c2ccccc21 [9-diazofluorene] | gave the desired ester in aqueous medium |  | average number of carboxylates labeled in RNase A [1]: three |
| CNC(=O)C(=[N+]=[N-])c1ccc(C)cc1 [Diazo compound 11, α-diazo-4-methylphenyl-N-methylacetamide] |  | enhanced |  |
| Cc1ccc(C(=[N+]=[N-])C(=O)N(C)C)cc1 [Diazo compound 12, α-diazo-4-methylphenyl-N,N-dimethylacetamide] |  | enhanced |  |
| CCOC(=O)C(=[N+]=[N-])C(=O)OCC [diethyl 2-diazomalonate] | unreactive |  |  |
| CCOC(=O)CC(=O)OCC [diethylmalonate] |  |  | pKa [4]: 16.4 |
